Data: patent US12410171B2, “Tropomyosin receptor kinase (TRK) degradation compounds and methods of use” (Cullgen (Shanghai), Inc., priority 2020, dated 2025)
Read-outs that look alike come from different tables or passages of the source.

Experiments:
KM12 cells = assay: KM12 cell viability (CellTiter-Glo); assay type: cell-based; details: for IC50: Homo sapiens, 72 h, KM12 cell viability, CellTiter-Glo, read-out: IC50
Procedure, shortened: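 Three-day exposure of KM12 cells (5000/well, RPMI 1640 with 10% FBS, 37 °C, 5% CO2) to compound dilution series, 3-fold over 8 or 11 points (top 1000 nM in the 8-point format) or 2-fold over 12. CellTiter-Glo readout, with IC50 fitted by nonlinear least-squares regression.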

TPM3-TRKA fusion protein = biological target: T1, TPM3-TRKA fusion protein (Homo sapiens, UniProt P04629); assay: TPM3-TRKA fusion protein levels in KM12 cells (Western blot); assay type: cell-based; details: for percent degradation of TPM3-TRKA protein at 0.01 µM: 16 h, read-out: Degradation (at 10 nM)
T1 construct: The resulted chimeric proteins always retain the kinase domain of TRK proteins; TPM3 (fusion partner, N-terminal part of tropomyosin alpha-3, P06753); endogenous in cells; host or cells: KM12 colon cancer cells; the other entry of the earlier key: TPM3 (P06753, Tropomyosin alpha-3 chain)
T1 sequence (P04629 with tags, fused parts or gaps): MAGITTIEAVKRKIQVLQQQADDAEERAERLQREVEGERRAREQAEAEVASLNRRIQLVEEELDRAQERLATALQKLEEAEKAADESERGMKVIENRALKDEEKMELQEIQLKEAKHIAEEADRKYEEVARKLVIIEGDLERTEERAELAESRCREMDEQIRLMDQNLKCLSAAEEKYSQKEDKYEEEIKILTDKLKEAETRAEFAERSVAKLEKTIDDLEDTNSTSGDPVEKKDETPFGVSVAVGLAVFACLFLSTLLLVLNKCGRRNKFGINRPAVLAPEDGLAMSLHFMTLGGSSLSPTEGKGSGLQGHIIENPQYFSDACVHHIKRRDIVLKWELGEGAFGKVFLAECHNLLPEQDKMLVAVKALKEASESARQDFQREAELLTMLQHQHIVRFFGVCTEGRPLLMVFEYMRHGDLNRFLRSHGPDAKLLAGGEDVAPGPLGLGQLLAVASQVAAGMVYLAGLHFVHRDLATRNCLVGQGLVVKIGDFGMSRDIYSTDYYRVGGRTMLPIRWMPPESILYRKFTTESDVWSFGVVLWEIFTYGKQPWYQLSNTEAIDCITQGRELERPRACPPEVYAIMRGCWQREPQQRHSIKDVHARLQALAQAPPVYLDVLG
Procedure, shortened: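 TPM3-TRKA levels were assessed by Western blot with chemiluminescent detection and band densitometry, after SDS-PAGE of BCA-normalized RIPA lysates. Before lysis, KM12 cells received DMSO, compounds or matched control compounds at concentrations including 0.1, 1, 10 and 100 nM and 0.4–30 nM. Exposures lasted 4 h, 8–16 h or 16 h.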

[1] = TPM3-TRKA degradation in KM12 cells at 10 nM compound, category of percentage degradation
[2] = 500 nM, 12-point 2-fold serial dilution, 3 days (FIG. 4A)

| SMILES | IC50 (KM12 cells; three days treatment) [nM] | also measured |
| --- | --- | --- |
| O=C1CCC(N2C[C@H](c3ccc(C#CCN4CCN(c5cccc(-c6cnc7ccc(N8CCCC8c8cccc(F)c8)nn67)n5)CC4)cc3)OC2=O)C(=O)N1 (stereo in doubt) [TR-224, 3-((S)-5-(4-(3-(4-(6-(6-((S)-2-(3-fluorophenyl)pyrrolidin-1-yl)imidazo[1,2-b]pyridazin-3-yl)pyridin-2-yl)piperazin-1-yl)prop-1-yn-1-yl)phenyl)-2-oxooxazolidin-3-yl)piperidine-2,6-dione] | 8.7 | percent degradation of TPM3-TRKA protein at 0.01 µM (TPM3-TRKA fusion protein; [1]): > 80% |
| O=C1CCC(N2C(=O)c3cccc(NCCOCCOCCOCCC(=O)N4CCN(c5cccc(-c6cnc7ccc(N8CCC[C@@H]8c8cccc(F)c8)nn67)n5)CC4)c3C2=O)C(=O)N1 (stereo partly drawn) [CPD-010, 2-(2,6-Dioxopiperidin-3-yl)-4-((2-(2-(2-(3-(4-(6-(6-((R)-2˜ (3-fluorophenyl)pyrrolidin-1-yl)imidazo[1,2-b]pyridazin-3-yl)pyridin-2-yl)piperazin-1-yl)-3-oxopropoxy)ethoxy)ethoxy)ethyl)amino) isoindoline-1,3-dione] | – | viability of KM12 cells (KM12 cells; [2]): inhibited the viability of KM12 cells; percent degradation of TPM3-TRKA protein at 0.01 µM (TPM3-TRKA fusion protein; [1]): 50 to 80% |
| O=C1CCC(N2C(=O)c3cccc(NCCCC(=O)N4CCN(c5ccc(C(=O)Nc6n[nH]c7ccc(Cc8cc(F)cc(F)c8)cc67)c(NC6CCOCC6)c5)CC4)c3C2=O)C(=O)N1 (stereo not shown) [CPD-053, N-(5-(3,5-Difluorobenzyl)-1H-indazol-3-yl)-4-(4-(4-((2-(2,6-dioxopiperidin-3-yl)-1,3-dioxoisoindolin-4-yl)amino)butanoyl)piperazin-1-yl)-2-((tetrahydro-2H-pyran-4-yl)amino)benzamide] | 1.5 | viability of KM12 cells (KM12 cells; [2]): inhibited the viability of KM12 cells; viability of KM12 cells (KM12 cells; 1000 nM, 8-point 3-fold serial dilution, 3 days (FIG. 4B)): significantly inhibited the viability of KM12 cells; percent degradation of TPM3-TRKA protein at 0.01 µM (TPM3-TRKA fusion protein; [1]): > 80%; TPM3-TRKA protein levels (TPM3-TRKA fusion protein; KM12 cells, 100 nM, indicated incubation time, Western blot (FIG. 2)): rapidly reduced TPM3-TRKA protein levels |
| O=C1CCC(N2C(=O)c3cccc(NCCOCCOCCOCCC(=O)N4CCN(c5ccc(C(=O)Nc6n[nH]c7ccc(Cc8cc(F)cc(F)c8)cc67)c(NC6CCOCC6)c5)CC4)c3C2=O)C(=O)N1 (stereo not drawn) [CPD-057, N—(S-(3,5-Difluorobenzyl)-1H-indazol-3-yl)-4-(4-(3-(2-(2-(2-((2-(2,6-dioxopiperidin-3-yl)-1,3-dioxoisoindolin-4-yl)amino)ethoxy)ethoxy)ethoxy)propanoyl)piperazin-1-yl)-2-((tetrahydro-2H-pyran-4-yl)amino)benzamide] | – | viability of KM12 cells (KM12 cells; [2]): inhibited the viability of KM12 cells; percent degradation of TPM3-TRKA protein at 0.01 µM (TPM3-TRKA fusion protein; [1]): > 80% |
| O=C1CCC(N2C(=O)c3ccc(NCCCC(=O)N4CCC(Nc5cccc(C(=O)Nc6cnn7ccc(N8CCC[C@@H]8c8cc(F)ccc8F)nc67)n5)CC4)cc3C2=O)C(=O)N1 (stereo partly drawn) [CPD-470, N-(5-((R)-2-(2,5-difluorophenyl)pyrrolidin-1-yl)pyrazolo[1,5-a]pyrimidin-3-yl)-6-((1-(4-((2-(2,6-dioxopiperidin-3-yl)-1,3-dioxoisoindolin-5-yl)amino)butanoyl)piperidin-4-yl)amino)picolinamide] | – | IC50 (KM12 cells; 11-point 3-fold serial dilution, 3 days): 21 nM; percent degradation of TPM3-TRKA protein at 0.01 µM (TPM3-TRKA fusion protein; TPM3-TRKA degradation in KM12 cells at 10 nM): > 80% |
| O=C1CCC(N2C(=O)c3ccc(N4CC(CN5CCN(c6cccc(-c7cnc8ccc(N9CCC[C@@H]9c9cccc(F)c9)cn78)n6)CC5)C4)cc3C2=O)C(=O)N1 (stereo partly drawn) [TR-234, 2-(2,6-dioxopiperidin-3-yl)-5-(3-((4-(6-(6-((R)-2-(3-fluorophenyl)pyrrolidin-1-yl)imidazo[1,2-a]pyridin-3-yl)pyridin-2-yl)piperazin-1-yl)methyl)azetidin-1-yl)isoindoline-1,3-dione] | 284 | – |
| O=C1CCC(n2c(=O)n(CCCN3CCN(c4cccc(-c5cnc6ccc(N7CCC[C@@H]7c7cccc(F)c7)cn56)n4)CC3)c3ccccc32)C(=O)N1 (stereo partly drawn) [TR-243, 3-(3-(3-(4-(6-(6-((R)-2-(3-Fluorophenyl)pyrrolidin-1-yl)imidazo[1,2-a]pyridin-3-yl)pyridin-2-yl)piperazin-1-yl)propyl)-2-oxo-2,3-dihydro-1H-benzo[d]imidazol-1-yl)piperidine-2,6-dione] | > 500 | – |
| Cn1c(=O)n(C2CCC(=O)NC2=O)c2ccc(OCCCN3CCN(c4cccc(-c5cnc6ccc(N7CCC[C@@H]7c7cccc(F)c7)nn56)n4)CC3)cc21 (stereo partly drawn) [TR-257, 3-(5-(3-(4-(6-(6-((R)-2-(3-Fluorophenyl)pyrrolidin-1-yl)imidazo[1,2-b]pyridazin-3-yl)pyridin-2-yl)piperazin-1-yl)propoxy)-3-methyl-2-oxo-2,3-dihydro-1H-benzo[d]imidazol-1-yl)piperidine-2,6-dione] | > 500 | – |
| O=C1CCC(N2C(=O)c3ccc(CN4CCN(c5ccc(C(=O)Nc6n[nH]c7ccc(Cc8cc(F)cc(F)c8)cc67)c(NC6CCOCC6)c5)CC4)cc3C2=O)C(=O)N1 (stereo not shown) [TR-274, N-(5-(3,5-Difluorobenzyl)-1H-indazol-3-yl)-4-(4-((2-(2,6-dioxopiperidin-3-yl)-1,3-dioxoisoindolin-5-yl)methyl)piperazin-1-yl)-2-((tetrahydro-2/-pyran-4-yl)amino)benzamide] | 440 | – |
| O=C1CCC(N2C(=O)c3ccc(CCN4CCN(c5ccc(C(=O)Nc6n[nH]c7ccc(Cc8cc(F)cc(F)c8)cc67)c(NC6CCOCC6)c5)CC4)cc3C2=O)C(=O)N1 (stereo not shown) [TR-277, N-(5-(3,5-Difluorobenzyl)-1H-indazol-3-yl)-4-(4-(2-(2-(2,6-dioxopiperidin-3-yl)-1,3-dioxoisoindolin-S-yl)ethyl)piperazin-1-yl)-2-((tetrahydro-2H-pyran-4-yl)amino)benzamide] | > 500 | – |
| O=C1CCC(N2C(=O)c3ccc(N4CC5(CCC(N6CCN(c7ccc(C(=O)Nc8n[nH]c9ccc(Cc%10cc(F)cc(F)c%10)cc89)c(NC8CCOCC8)c7)CC6)C5)C4)cc3C2=O)C(=O)N1 (stereo not shown) [TR-291, N-(5-(3,5˜Difluorobenzyl)-1H-indazol-3-yl)-4-(4-(2-(2-(2,6-dioxopiperidin-3-yl)-1,3-dioxoisoindolin-5-yl)-2-azaspiro[3.4]octan-6-yl)piperazin-1-yl)-2-((tetrahydro-2H-pyran˜4-yl)amino)benzamide] | 446 | – |
| Cc1nc2cccc(N3CC(CCN4CCN(c5cccc(-c6cnc7ccc(N8CCC[C@@H]8c8cccc(F)c8)nn67)n5)CC4)C3)c2c(=O)n1C1CCC(=O)NC1=O (stereo partly drawn) [TR-307, 3-(5˜ (3-(2-(4-(6-(6-((R)-2-(3-Fluorophenyl)pyrrolidin-1-yl)imidazo[1,2-b]pyridazin-3-yl)pyridin-2-yl)piperazin-1-yl)ethyl)azetidin-1-yl)-2-methyl-4-oxoquinazolin-3 (4H)-yl)piperidine-2,6-dione] | 12.7 | – |
| O=C1CCC(n2c(=O)n(CCN3CCN(c4ccc(C(=O)Nc5n[nH]c6ccc(Cc7cc(F)cc(F)c7)cc56)c(NC5CCOCC5)c4)CC3)c3ccccc32)C(=O)N1 (stereo not drawn) [TR-310, N—(S-(3,5-Difluorobenzyl)-1H-indazol-3-yl)-4-(4-(2-(3-(2,6-dioxopiperidin-3-yl)-2-oxo-2,3-dihydro-1H-benzo[d]imidazol-1-yl)ethyl)piperazin-1-yl)-2-((tetrahydro-2H-pyran-4-yl)amino)benzamide] | 12.5 | – |
| O=C1CCC(n2c(=O)n(CCCN3CCN(c4ccc(C(=O)Nc5n[nH]c6ccc(Cc7cc(F)cc(F)c7)cc56)c(NC5CCOCC5)c4)CC3)c3ccccc32)C(=O)N1 (stereo not drawn) [TR-311, N—(S-(3,5-Difluorobenzyl)-1H-indazol-3-yl)-4-(4-(3-(3-(2,6-dioxopiperidin-3-yl)-2-oxo-2,3-dihydro-1H-benzo[d]imidazol-1-yl)propyl)piperazin-1-yl)-2˜ ((tetrahydro-2H-pyran-4-yl)amino)benzamide] | 14.8 | – |
| Cn1c(=O)n(C2CCC(=O)NC2=O)c2cccc(OCCCN3CCN(c4ccc(C(=O)Nc5n[nH]c6ccc(Cc7cc(F)cc(F)c7)cc56)c(NC5CCOCC5)c4)CC3)c21 (stereo not shown) [TR-312, N-(5-(3,5-Difluorobenzyl)-1H-indazol-3-yl)-4-(4-(3-((1-(2,6-dioxopiperidin-3-yl)-3-methyl-2-oxo-2,3-dihydro-1H-benzo[d]imidazol-4-yl)oxy)propyl)piperazin-1-yl)-2-((tetrahydro-2/˜pyran-4-yl)amino)benzamide] | 107 | – |
| Cn1c(=O)n(C2CCC(=O)NC2=O)c2ccc(OCCCN3CCN(c4ccc(C(=O)Nc5n[nH]c6ccc(Cc7cc(F)cc(F)c7)cc56)c(NC5CCOCC5)c4)CC3)cc21 (stereo not shown) [TR-313, N-(5-(3,5-Difluorobenzyl)-1H-indazol-3-yl)-4-(4-(3-((1-(2,6-dioxopiperidin-3-yl)-3-methyl-2-oxo-2,3-dihydro-1H-benzo[d]imidazol-5-yl)oxy)propyl)piperazin-1-yl)-2-((tetrahydro-2/1-pyran-4-yl)amino)benzamide] | 13.8 | – |
| O=C1CCC(N2C(=O)c3ccc(N4CC5(CN(CC6CCN(c7ccc(C(=O)Nc8n[nH]c9ccc(Cc%10cc(F)cc(F)c%10)cc89)c(NC8CCOCC8)c7)CC6)C5)C4)cc3C2=O)C(=O)N1 (stereo not shown) [TR-329] | > 500 | – |
